Assay results reported in paper PMC6365506, “Plasmodium falciparum specific helicase 2 is a dual, bipolar helicase and is crucial for parasite growth” (Scientific Reports, 2019).

Key:
PfPSH2 [1] = target: T1, PfPSH2 (Plasmodium falciparum, UniProt A0A1Q1G9G0); assay: radiolabelled Pi release, TLC; format: biochemical; conditions: M13mp19 ssDNA or total RNA as stimulator; 1.0 mM MgCl2, pH 8.0, 37 °C; labelled compound ([γ-32P]ATP with 1 mM cold ATP)
T1 construct: gene PSH2; full length, 880 residues, ~105 kDa, His-tagged (pET28a+), expressed in E. coli BL21 codon Plus, Ni-NTA purified
T1 sequence (A0A1Q1G9G0 1-880): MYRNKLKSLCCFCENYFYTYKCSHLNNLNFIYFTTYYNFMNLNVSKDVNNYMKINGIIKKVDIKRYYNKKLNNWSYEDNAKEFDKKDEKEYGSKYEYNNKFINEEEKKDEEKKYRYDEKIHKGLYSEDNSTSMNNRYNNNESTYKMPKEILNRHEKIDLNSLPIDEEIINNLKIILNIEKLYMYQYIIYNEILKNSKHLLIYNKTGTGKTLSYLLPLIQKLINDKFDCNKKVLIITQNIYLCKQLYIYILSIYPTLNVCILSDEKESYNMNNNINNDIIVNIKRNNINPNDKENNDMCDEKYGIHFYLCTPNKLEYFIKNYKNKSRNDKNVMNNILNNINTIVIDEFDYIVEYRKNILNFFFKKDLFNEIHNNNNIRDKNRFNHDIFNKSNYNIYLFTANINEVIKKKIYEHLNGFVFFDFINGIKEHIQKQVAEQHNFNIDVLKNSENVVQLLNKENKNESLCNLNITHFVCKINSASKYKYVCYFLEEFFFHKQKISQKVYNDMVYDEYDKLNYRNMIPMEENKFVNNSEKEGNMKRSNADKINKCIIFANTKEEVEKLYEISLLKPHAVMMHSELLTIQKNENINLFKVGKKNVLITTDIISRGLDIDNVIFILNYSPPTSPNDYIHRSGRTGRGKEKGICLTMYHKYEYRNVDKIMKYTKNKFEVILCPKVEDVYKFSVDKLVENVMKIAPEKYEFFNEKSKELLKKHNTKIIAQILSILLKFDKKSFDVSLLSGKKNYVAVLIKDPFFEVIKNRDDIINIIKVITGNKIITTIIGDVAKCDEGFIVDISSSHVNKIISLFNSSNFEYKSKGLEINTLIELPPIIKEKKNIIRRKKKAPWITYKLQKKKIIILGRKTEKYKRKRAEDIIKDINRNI

PfPSH2 [2] = target: T1, PfPSH2; assay: DNA helicase unwinding assay, gel autoradiography; format: biochemical; conditions: 32P-labelled partial duplex DNA; dATP in place of ATP; 1.0 mM MgCl2, pH 8.0, 37 °C; 80 nM protein

| SMILES | radiolabelled Pi release, TLC (PfPSH2 [1]) | DNA helicase unwinding assay, gel autoradiography (PfPSH2 [2]) |
| --- | --- | --- |
| Nc1ncnc2c1ncn2[C@@H]1O[C@H](COP(=O)(O)OP(=O)(O)OP(=O)(O)O)[C@@H](O)[C@H]1O [ATP] | PfPSH2 shows concentration-dependent ATPase activity in the presence of DNA | – |
| Nc1ncnc2c1ncn2[C@H]1C[C@H](O)[C@@H](COP(=O)(O)OP(=O)(O)OP(=O)(O)O)O1 [dATP] | – | PfPSH2 prefers ATP and dATP for unwinding the duplex substrate |
